In paper PMC10318822, “Phase 1 dose-escalation study to evaluate the safety, tolerability, pharmacokinetics, and anti-tumor activity of FCN-159 in adults with neurofibromatosis type 1-related unresectable plexiform neurofibromas” (BMC Medicine, 2023):
“Also recorded” adds a separate entry of the source.

Tests used:
[1] = Plasma pharmacokinetics of FCN-159, non-compartmental analysis; assay type: in vivo, human; conditions: for AUCtau / CLss/F / Cavg,ss / Cmax,ss / Cmin,ss / ARAUC0-t / ARCmax / AUC0-t / AUC0-∞ / CL/F / Cmax / T1/2 / Vd/F: Geomean; for ARAUC0-t: AUC0-t (steady state) / AUC0-t; for ARCmax: Cmax (steady state) / Cmax; for Tmax: median
Procedure: In order to study the PK characteristics of FCN-159 in plasma, blood samples were collected pre-dose and 0.5, 1, 2, 3, 4, 6, and 10 h post dose on days 1 and 28 of cycle 1, and pre-dose only on days 2, 8, and 15 of cycle 1 and day 1 of cycle 2. Plasma PK parameters of FCN-159 in each dose group were analyzed with standard non-compartmental PK methods using Phoenix WinNonlin, v8.2. PK parameters included area under the curve (AUC)(0-last), AUC(0-∞), maximum plasma concentration (Cmax), time to maximum plasma concentration (Tmax), half-life (T1/2), oral clearance (CL/F), and volume of distribution (Vd/F) for the single-dose regimen and AUC(0-tau), Cmax, Tmax, minimum steady-state plasma concentration (Css,min), mean steady-state plasma concentration (Css, avg), accumulation ratio for AUC (ARAUC), and apparent oral clearance at steady state (CLss/F) for the multiple dose regimen.
Data were summarized using descriptive statistics.
Dose proportionality is assessed by fitting the relationship of the ln-transformed PK parameters (Cmax, AUC) to the ln-transformed dose using a power model loge(Y)=α+βloge(Dose)+ε.

NF1-related PN = assay: Tumor response by MRI volumetric analysis (Response Evaluation in Neurofibromatosis Schwannomatosis criteria); assay type: in vivo, human; conditions: for Best overall response: Complete response / Best overall response: Disease progression / Best overall response: Not evaluable / Best overall response: Partial response / Best overall response: Stable disease: Investigator assessments
Text: Primary endpoints of the study were the DLT incidence rate, MTD, and RP2D. Secondary endpoints included other safety assessments, imaging tumor response (complete response [CR], PR, stable disease [SD], or progressive disease [PD]), and PK parameters of FCN-159. Adverse events were graded per CTCAE v5.0.
All patients underwent a complete medical history, physical examination, Eastern Cooperative Oncology Group (ECOG) assessment, and laboratory analysis of test results. Drug-related TEAEs, serious adverse events (SAEs), TEAEs of grade ≥ 3 toxicity, and TEAEs leading to drug discontinuation were reviewed on an ongoing basis. Efficacy was assessed by radiologic scans and clinical assessment. Tumor assessments per Response Evaluation in Neurofibromatosis Schwannomatosis criteria were performed by investigators using MRI volumetric analysis every 4 cycles within the first 2 years (± 7 days) and every 6 cycles after 2 years (± 14 days) until PD, death, patient's voluntary withdrawal from study treatment, or study termination. MRI sequences of […], T1- and T2-weighted sequences were chosen and the software of Extended Brilliance Workspace, SIGNA Premier and uExceed were used for MRI volumetric analysis. The same software was used for all tumor assessments at baseline and subsequent assessed timepoints of the same patient. Pain was assessed by an 11-point numerical rating scale (NRS-11).

[2] = design: method as in PMID 36627544; conditions: healthy volunteers, compared with fasted state; cited from earlier work
[3] = tested on: MAPK pathway (phosphorylation of MEK kinase and intracellular ERK); design: method as in doi:10.1158/1538-7445.AM2020-1951; conditions: human colon cancer cells; preventing phosphorylation of MEK kinase and intracellular ERK; cited from earlier work
[4] = tested on: patients with NF1-related PN with tumor pain; assay: Pain assessed by 11-point numerical rating scale (NRS-11); assay type: in vivo, human
Procedure: Efficacy was assessed by radiologic scans and clinical assessment.

[5] = design: method as in PMID 36113242; conditions: patients with NRAS mut+ melanoma; cited from earlier work

## Cn1c(=O)c(F)c(Nc2ccc(I)cc2F)c2c(=O)n(C3CC3)nc(-c3cccc(NS(=O)(=O)C4CC4)c3)c21 [FCN-159]
[1]; Cmax and AUCtau at steady state 4–8 mg, PK profile between 4 and 12 mg
  Dose proportionality of exposure: approximately linear; also recorded: roughly dose proportional
[1]; across all dosing regimens
  Median Tmax: 1.21 to 2.18 h
[1]; from each cohort
  Mean accumulation ratio of AUC: 1.5–2.0
[1]; multiple dose, 4 mg, N 3
  AUCtau: 392 ng·h/mL
  CLss/F: 10.2 L/h
  Cavg,ss: 16.3 ng/mL
  Cmax,ss: 45.0 ng/mL
  Cmin,ss: 8.54 ng/mL
  ARAUC0-t: 1.56
  ARCmax: 1.25
  Tmax: 1.92 h
[1]; multiple dose, 6 mg, N 4
  AUCtau: 532 ng·h/mL
  CLss/F: 11.3 L/h
  Cavg,ss: 22.2 ng/mL
  Cmax,ss: 52.2 ng/mL
  Cmin,ss: 12.2 ng/mL
  ARAUC0-t: 2.03
  ARCmax: 1.37
  Tmax: 1.24 h
[1]; multiple dose, 8 mg, N 7
  AUCtau: 723 ng·h/mL
  CLss/F: 11.1 L/h
  Cavg,ss: 30.1 ng/mL
  Cmax,ss: 82.5 ng/mL
  Cmin,ss: 15.4 ng/mL
  ARAUC0-t: 1.75
  ARCmax: 1.36
  Tmax: 1.50 h
[1]; single dose, 4 mg, N 3
  AUC0-t: 250 ng·h/mL
  AUC0-∞: 370 ng·h/mL
  CL/F: 10.8 L/h
  Cmax: 36.0 ng/mL
  T1/2: 16.2 h
  Vd/F: 253 L
  Tmax: 1.43 h
[1]; single dose, 6 mg, N 4
  AUC0-t: 262 ng·h/mL
  AUC0-∞: 388 ng·h/mL
  CL/F: 15.4 L/h
  Cmax: 38.1 ng/mL
  T1/2: 11.4 h
  Vd/F: 254 L
  Tmax: 1.48 h
[1]; single dose, 8 mg, N 8
  AUC0-t: 453 ng·h/mL
  AUC0-∞: 661 ng·h/mL
  CL/F: 12.1 L/h
  Cmax: 64.2 ng/mL
  T1/2: 15.4 h
  Vd/F: 269 L
  Tmax: 1.21 h
[1]; single dose, 12 mg, N 4
  AUC0-t: 1050 ng·h/mL
  AUC0-∞: 1330 ng·h/mL
  CL/F: 9.03 L/h
  Cmax: 147 ng/mL
  T1/2: 11.7 h
  Vd/F: 153 L
  Tmax: 2.18 h
NF1-related PN; 4 mg (n = 3)
  Best overall response: Complete response: 0 n (%)
  Best overall response: Disease progression: 0 n (%)
  Best overall response: Not evaluable: 0 n (%)
  Best overall response: Partial response: 1 (33.3) n (%)
  Best overall response: Stable disease: 2 (66.7) n (%)
NF1-related PN; 6 mg (n = 4)
  Best overall response: Complete response: 0 n (%)
  Best overall response: Disease progression: 0 n (%)
  Best overall response: Not evaluable: 0 n (%)
  Best overall response: Partial response: 2 (50.0) n (%)
  Best overall response: Stable disease: 2 (50.0) n (%)
NF1-related PN; 8 mg (n = 5)
  Best overall response: Complete response: 0 n (%)
  Best overall response: Disease progression: 0 n (%)
  Best overall response: Not evaluable: 0 n (%)
  Best overall response: Partial response: 2 (40.0) n (%)
  Best overall response: Stable disease: 3 (60.0) n (%)
NF1-related PN; 12 mg (n = 4)
  Best overall response: Complete response: 0 n (%)
  Best overall response: Disease progression: 0 n (%)
  Best overall response: Not evaluable: 0 n (%)
  Best overall response: Partial response: 1 (25.0) n (%)
  Best overall response: Stable disease: 3 (75.0) n (%)
NF1-related PN; 16 evaluable patients
  Patients with progressive disease (PD): none experienced PD; also recorded: zero patients had PD
NF1-related PN; 16 patients with at least one post-baseline tumor assessment
  Patients with reduced tumor volume: 100%
NF1-related PN; Total (n = 16)
  Best overall response: Complete response: 0 n (%)
  Best overall response: Disease progression: 0 n (%)
  Best overall response: Not evaluable: 0 n (%)
  Best overall response: Partial response: 6 (37.5) n (%)
  Best overall response: Stable disease: 10 (62.5) n (%)
NF1-related PN; in vivo
  Largest reduction in tumor volume: 84.2%
NF1-related PN; six of 16 evaluable patients
  Patients achieving partial responses: 37.5%
[2]
  Food effect on pharmacokinetic profile: food did not affect the pharmacokinetic profile
[3]
  Effect on downstream MAPK pathway: blocks the downstream MAPK pathway
[4]; NRS-11 score ≥ 2 at baseline (16/22), cycles 4 and 5, as of 9 August 2022
  Patients with reduction in pain intensity of at least 2 points: 72.7%
[4]; across all patients, as of 9 August 2022
  Average decrease in pain scores: 2.4 points
[4]; as of 9 August 2022
  Patients achieving complete pain relief at least once (score reduced to 0): 13 patients
[4]; dose group of 8 mg
  Mean pain score reduction: 2.5 points
[4]; dose group of 8 mg (15/20)
  Patients achieving meaningful pain improvement: 75%
[5]
  Mean T1/2: 32 to 57 h
